Data taken from US8871767B2, “2-arylimidazo[1,2-B]pyridazine, 2-phenylimidazo[1,2-A]pyridine, and 2-phenylimidazo[1,2-A]pyrazine derivatives” (Hengrui (USA) Ltd., priority 2010, dated 2014).

test system: Hedgehog pathway activation (GLi-luciferase reporter) in Shh Light II reporter cells; assay: Hedgehog pathway activation on Shh Light II reporter cells measured by luciferase activity; assay type: cell-based; conditions: Mus musculus, Shh Light II, hShh activation, read-out: Shh (IC50, inhibition of Hedgehog pathway activation)
How it was run: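 Shh Light II reporter cells carrying a hedgehog-responsive GLi-luciferase reporter were stimulated either with 500 nM SAG, a direct Smoothened agonist, or with conditioned media containing human Sonic Hedgehog (hShh). Test compounds were evaluated for blocking this pathway activation, quantified by luciferase activity. Cell viability was monitored in parallel with the Celltiter-Blue® assay.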

Compound | IC50
Cc1ccc(-c2cn3nc(-c4ccc(C(=O)NO)cc4)ccc3n2)cc1NC(=O)C(C)(C)C [compound 588] | 1050 nM
Cc1ccc(-c2cn3nc(-c4cccc(C(=O)NO)c4)ccc3n2)cc1NC(=O)C(C)(C)C [compound 589] | 498 nM
Cc1ccc(-c2cn3nc(NCc4ccc(CO)cc4)ccc3n2)cc1NC(=O)C(C)(C)C [compound 593] | 2040 nM
Cc1ccc(-c2cn3nc(NS(=O)(=O)c4cccc(Br)c4)ccc3n2)cc1NC(=O)C(C)(C)C [compound 595] | 348 nM
CCOC(=O)C=Cc1cccc(S(=O)(=O)Nc2ccc3nc(-c4ccc(C)c(NC(=O)C(C)(C)C)c4)cn3n2)c1 [compound 603] | 8180 nM
Cc1ccc(-c2cn3nc(NCc4ccc(C(=O)NO)cc4)ccc3n2)cc1NC(=O)C(C)(C)C [compound 604] | 157 nM
CCOC(=O)C=Cc1cccc(S(=O)(=O)Nc2cc(-c3cn4nc(Cl)ccc4n3)ccc2C)c1 [compound 607] | 2100 nM
CCOC(=O)C=Cc1cccc(S(=O)(=O)Nc2cc(-c3cn4nc(C=CC(=O)OCC)ccc4n3)ccc2C)c1 [compound 608] | 2040 nM
CCOC(=O)C=Cc1cccc(C(=O)Nc2cc(-c3cn4nc(Cl)ccc4n3)ccc2C)c1 [compound 609] | > 10000 nM
CCOC(=O)C=Cc1cccc(C(=O)Nc2cc(-c3cn4nc(C=CC(=O)OCC)ccc4n3)ccc2C)c1 [compound 610] | 465 nM
Cc1ccc(-c2cn3nc(NC(=O)c4ncccc4Cl)ccc3n2)cc1NC(=O)C(C)(C)C [compound 612] | 78 nM
COc1ccc2nc(-c3ccc(C)c(NC(=O)c4cccc(C=CC(=O)NO)c4)c3)cn2n1 [compound 616] | > 10000 nM
COc1ccc2nc(-c3ccc(C)c(NS(=O)(=O)c4cccc(C=CC(=O)NO)c4)c3)cn2n1 [compound 618] | 9080 nM
Cc1ccc(-c2cn3nc(-c4cccc(F)c4Cl)ccc3n2)cc1NC(=O)C(C)(C)C [compound 619] | 35 nM
Cc1ccc(-c2cn3nc(Cl)ccc3n2)cc1NC(=O)C(C)(C)C#N [compound 620] | 3200 nM
Cc1ccc(C2CN3N=C(c4cccnc4C(F)(F)F)C=CC3=N2)cc1NC(=O)C(C)(C)CN (centres unmarked) [compound 622, 3-amino-2,2-dimethyl-N-(2-methyl-5-(6-(2-(trifluoromethyl)pyridin-3-yl)-2,3-dihydroimidazo[1,2-b]pyridazin-2-yl)phenyl)propanamide] | 534 nM
Cc1ccc(-c2cn3nc(-c4cccnc4C(F)(F)F)ccc3n2)cc1NS(=O)(=O)c1cccc(C=CC(=O)Nc2ccccc2N)c1 [compound 624, N-(2-aminophenyl)-3-(3-(N-(2-methyl-5-(6-(2-(trifluoromethyl)pyridin-3-yl)imidazo[1,2-b]pyridazin-2-yl)phenyl)sulfamoyl)phenyl)acrylamide] | 824 nM
Cc1ccc(-c2cn3nc(-c4cccnc4C(F)(F)F)ccc3n2)cc1NC(=O)c1cccc(C=CC(=O)NO)c1 [compound 625, 3-(3-(hydroxyamino)-3-oxoprop-1-en-1-yl)-N-(2-methyl-5-(6-(2-(trifluoromethyl)pyridin-3-yl)imidazo[1,2-b]pyridazin-2-yl)phenyl)benzamide] | 813 nM
Cc1ccc(-c2cn3nc(-c4cccnc4C(F)(F)F)ccc3n2)cc1NS(=O)(=O)c1cccc(C=CC(=O)NO)c1 [compound 626, N-hydroxy-3-(3-(N-(2-methyl-5-(6-(2-(trifluoromethyl)pyridin-3-yl)imidazo[1,2-b]pyridazin-2-yl)phenyl)sulfamoyl)phenyl)acrylamide] | 2910 nM

The next lines start with the values.

IC50 | Compound
1900 nM | Cc1ccc(-c2cn3nc(-c4ccc(C(=O)NOC5CCCCO5)cc4)ccc3n2)cc1NC(=O)C(C)(C)C (centres unmarked) [compound 584]
925 nM | Cc1ccc(-c2cn3nc(-c4cccc(C(=O)NOC5CCCCO5)c4)ccc3n2)cc1NC(=O)C(C)(C)C (centres unmarked) [compound 585]
87 nM | Cc1ccc(-c2cn3nc(-c4ccc(C(=N)NN)cc4C(F)(F)F)ccc3n2)cc1NC(=O)C(C)(C)C [compound 586]
632 nM | COc1cc(CNc2ccc3nc(-c4ccc(C)c(NC(=O)C(C)(C)C)c4)cn3n2)cc(OC)c1OC [compound 587]
456 nM | Cc1ccc(-c2cn3nc(-c4ccc(-c5nc(=O)[nH][nH]5)cc4C(F)(F)F)ccc3n2)cc1NC(=O)C(C)(C)C [compound 590]
578 nM | Cc1ccc(-c2cn3nc(N)ccc3n2)cc1NC(=O)C(C)(C)C [compound 591, N-(5-(6-aminoimidazo[1,2-b]pyridazin-2-yl)-2-methylphenyl)pivalamide]
443 nM | COC(=O)c1ccc(CNc2ccc3nc(-c4ccc(C)c(NC(=O)C(C)(C)C)c4)cn3n2)cc1 [compound 592]
49 nM | Cc1ccc(-c2cn3nc(NC(=O)c4ccccn4)ccc3n2)cc1NC(=O)C(C)(C)C [compound 611]
283 nM | Cc1ccc(-c2cn3nc(NC(=O)c4cc(Cl)ccn4)ccc3n2)cc1NC(=O)C(C)(C)C [compound 613]
4370 nM | Cc1ccc(-c2cn3nc(NCc4cccc(C=CC(=O)NO)c4)ccc3n2)cc1NC(=O)C(C)(C)C [compound 614]
2240 nM | Cc1ccc(-c2cn3nc(Cl)ccc3n2)cc1NC(=O)c1cccc(C=CC(=O)NO)c1 [compound 615]
8600 nM | Cc1ccc(-c2cn3nc(Cl)ccc3n2)cc1NS(=O)(=O)c1cccc(C=CC(=O)NO)c1 [compound 617]
53 nM | Cc1ccc(-c2cn3nc(-c4cccnc4C(F)(F)F)ccc3n2)cc1NC(=O)C(C)(C)C#N [compound 621, 2-cyano-2-methyl-N-(2-methyl-5-(6-(2-(trifluoromethyl)pyridin-3-yl)imidazo[1,2-b]pyridazin-2-yl)phenyl)propanamide]
